In paper PMC314469, “Protein Interaction Networks by Proteome Peptide Scanning” (PLoS Biology, 2004):

System: Myo5 SH3 domain
Experiment: SPOT analysis of cellulose-bound peptides (WISE), Myo5 SH3 domain (Dataset S4)
Type: binding, Saccharomyces cerevisiae
Conditions: for The normalized value in BLU units: Myo5 SH3 domain
[1] = SPOT analysis of cellulose-bound 14-mer yeast proteome peptides, normalized value, mean where the peptide was synthesized more than once
[2] = SPOT analysis of cellulose-bound peptides probed with Myo5 SH3 domain, normalized value
[3] = SPOT analysis of membrane-bound peptides, normalized value (see methods)
[4] = SPOT analysis of membrane-synthesized peptides probed with Myo5 SH3 domain, normalized value

MASFLPVPEKPNLI
The normalized value in BLU units [1]: 161.0 BLU

FPFYLSFPFCPSFP
The normalized value in BLU units (SPOT analysis, Myo5 SH3) [2]: 759.9 BLU

LAAHKTKPSIPPKK
The normalized value in BLU units [3]: 248.8 BLU

NPMQKPVPFVPVLD
The normalized value in BLU units (SPOT analysis, Myo5 SH3) [4]: 420.2 BLU

DEALRYCPDAPIVL
The normalized value in BLU units [3]: 127.1 BLU

HLLGKEGPSAPNPS
The normalized value in BLU units [3]: 124.5 BLU

VAPNRIPPKVPVIN
The normalized value in BLU units [3]: 61069.9 BLU

TELLKTLPFYPTPS
The normalized value in BLU units [1]: 77.3 BLU

LLAEHNGPKLPHIP
The normalized value in BLU units [1]: 198.5 BLU

KQLKKQGPKRPSSA
The normalized value in BLU units [1]: 468.1 BLU

IAECLGVPWEPVDL
The normalized value in BLU units (SPOT analysis, Myo5 SH3) [2]: 142.9 BLU

AFHFWRPPIAPAEM
The normalized value in BLU units (SPOT analysis, Myo5 SH3) [2]: 1961.3 BLU

KALWKIQPYLPEFS
The normalized value in BLU units (SPOT analysis, Myo5 SH3) [4]: 146.1 BLU

ITRARYMPQDPNIV
The normalized value in BLU units (SPOT analysis, Myo5 SH3) [4]: 190.2 BLU

ELLCFLSPGKPSKG
The normalized value in BLU units (SPOT analysis, Myo5 SH3) [2]: 57.4 BLU

PEVHHHCPGVPCLV
The normalized value in BLU units (SPOT analysis, Myo5 SH3) [2]: 331.3 BLU

FHDPKFIPNKPYRQ
The normalized value in BLU units [1]: 299.7 BLU

NDDKKTEPDKPAFS
The normalized value in BLU units [3]: 140.5 BLU

TLKKKKTPKKPIAA
The normalized value in BLU units (SPOT analysis, Myo5 SH3) [4]: 535.4 BLU

LFDEKVKPQIPQLR
The normalized value in BLU units (SPOT analysis, Myo5 SH3) [4]: 89.2 BLU

NEFLHFDPHIPQPA
The normalized value in BLU units (SPOT analysis, Myo5 SH3) [2]: 156.4 BLU

SPKFLNSPDLPERT
The normalized value in BLU units [1]: 182.8 BLU

AKINKVSPEDPWVL
The normalized value in BLU units (SPOT analysis, Myo5 SH3) [4]: 121.0 BLU

ILCAYNSPKVPADI
The normalized value in BLU units (SPOT analysis, Myo5 SH3) [2]: 81.4 BLU

EFSPHSTPVTPRRL
The normalized value in BLU units [1]: 114.0 BLU

AKIDKVSPEDPWVL
The normalized value in BLU units (SPOT analysis, Myo5 SH3) [4]: 248.0 BLU

NGKDKSRPPRPPPK
The normalized value in BLU units [3]: 2621.2 BLU

AEAYLVTPEEPAKN
The normalized value in BLU units [1]: 39.6 BLU

RTFFKLPPNLPEAE
The normalized value in BLU units [3]: 2608.2 BLU

APVVKSEPSLPRMR
The normalized value in BLU units (SPOT analysis, Myo5 SH3) [4]: 241.2 BLU

ETGVRYGPEFPLCT
The normalized value in BLU units (SPOT analysis, Myo5 SH3) [4]: 96.2 BLU

KPLNLSKPISPPPS
The normalized value in BLU units [1]: 254.3 BLU

GLRELFLPGMPGLM
The normalized value in BLU units [1]: 159.7 BLU

KELPFTGPSIPFEN
The normalized value in BLU units (SPOT analysis, Myo5 SH3) [2]: 338.9 BLU

LPFMYLLPRFPSHI
The normalized value in BLU units (SPOT analysis, Myo5 SH3) [2]: 454.8 BLU

KLKSLNLPQLPPPK
The normalized value in BLU units [1]: 674.9 BLU

AKLRKFHPPEPYKG
The normalized value in BLU units [3]: 119.3 BLU

GLHDYTSPASPKQT
The normalized value in BLU units (SPOT analysis, Myo5 SH3) [2]: 129.7 BLU

QHKPKVKPSKPEAK
The normalized value in BLU units (SPOT analysis, Myo5 SH3) [4]: 956.3 BLU

GLLLLFVPDSPYDP
The normalized value in BLU units [1]: 21.6 BLU

WENFKEEPGEPLSR
The normalized value in BLU units (SPOT analysis, Myo5 SH3) [4]: 96.8 BLU

LQQRRYYPIFPGSI
The normalized value in BLU units (SPOT analysis, Myo5 SH3) [4]: 278.7 BLU

VEVIMHSPSDPEYA
The normalized value in BLU units (SPOT analysis, Myo5 SH3) [2]: 150.4 BLU

GNNSRNIPPPPPPP
The normalized value in BLU units (SPOT analysis, Myo5 SH3) [4]: 10334.3 BLU

KPMLHNVPHDPSLP
The normalized value in BLU units [1]: 412.6 BLU

IYHCKKQPLVPIGC
The normalized value in BLU units [3]: 293.5 BLU

YLNSLSEPLVPLAL
The normalized value in BLU units (SPOT analysis, Myo5 SH3) [2]: 131.6 BLU

RMQQKNSPAFPTHS
The normalized value in BLU units [3]: 1283.9 BLU

GEMVKLTPKNPFYK
The normalized value in BLU units (SPOT analysis, Myo5 SH3) [4]: 408.3 BLU

AFVPKRKPSLPQLA
The normalized value in BLU units (SPOT analysis, Myo5 SH3) [4]: 1744.9 BLU

PANPKILPKIPSGA
The normalized value in BLU units (SPOT analysis, Myo5 SH3) [4]: 164.4 BLU

DLQKKYEPSPPATH
The normalized value in BLU units [3]: 224.6 BLU

KTVDKGLPMIPTYV
The normalized value in BLU units [1]: 76.8 BLU

EFTTREGPHQPIGN
The normalized value in BLU units [3]: 79.8 BLU

FLRTMAQPTDPKDQ
The normalized value in BLU units [1]: 256.6 BLU

DQLNRLLPNLPEEE
The normalized value in BLU units (SPOT analysis, Myo5 SH3) [4]: 47.5 BLU

VFLRLISPTRPSLE
The normalized value in BLU units (SPOT analysis, Myo5 SH3) [2]: 1635.5 BLU

QSINRSIPSAPYGA
The normalized value in BLU units [3]: 208.2 BLU

GAGGLGCPALPYLA
The normalized value in BLU units (SPOT analysis, Myo5 SH3) [2]: 110.6 BLU

TGESRKAPLIPLLK
The normalized value in BLU units (SPOT analysis, Myo5 SH3) [4]: 214.2 BLU

IFQSLLHPELPIII
The normalized value in BLU units [1]: 239.9 BLU

AKDYRFNPAIPLRI
The normalized value in BLU units (SPOT analysis, Myo5 SH3) [4]: 304.4 BLU

WLGNKYDPENPFND
The normalized value in BLU units (SPOT analysis, Myo5 SH3) [4]: 88.8 BLU

NPLYWLLPSHPYTI
The normalized value in BLU units (SPOT analysis, Myo5 SH3) [2]: 165.0 BLU

DEFTLDLPRIPSLE
The normalized value in BLU units [1]: 180.8 BLU

TELNLSCPNVPGKP
The normalized value in BLU units [1]: 227.7 BLU

KPKVLFHPHWPLYI
The normalized value in BLU units [1]: 195.5 BLU

IVNEKRTPALPSNL
The normalized value in BLU units (SPOT analysis, Myo5 SH3) [4]: 101.8 BLU

VLTKMNAPQKPEDI
The normalized value in BLU units [1]: 296.2 BLU

GRHLKNIPRIPIFC
The normalized value in BLU units (SPOT analysis, Myo5 SH3) [4]: 1042.1 BLU

AERAKKAPSLPEGQ
The normalized value in BLU units (SPOT analysis, Myo5 SH3) [4]: 389.2 BLU

KWTIMPHPNRPNAA
The normalized value in BLU units [1]: 428.7 BLU

IEITHSEPAIPYRE
The normalized value in BLU units [1]: 114.3 BLU

VPIDKKSPFYPGLD
The normalized value in BLU units [3]: 150.4 BLU

HPEYLSLPFEPYCF
The normalized value in BLU units [1]: 212.9 BLU

FFNRYPNPYSPHVL
The normalized value in BLU units (SPOT analysis, Myo5 SH3) [2]: 136.7 BLU

GSLVKTKPTLPLTK
The normalized value in BLU units [3]: 421.7 BLU

PPLPRAPPVPPATF
The normalized value in BLU units (SPOT analysis, Myo5 SH3) [4]: 35914.7 BLU

DYRPKCIPCPPNGI
The normalized value in BLU units (SPOT analysis, Myo5 SH3) [4]: 154.3 BLU

KLVLRNVPILPILN
The normalized value in BLU units [3]: 303.3 BLU

DPSLYQIPEPPRGG
The normalized value in BLU units (SPOT analysis, Myo5 SH3) [2]: 98.8 BLU

GYDEKGNPIPPNNW
The normalized value in BLU units [1]: 96.0 BLU

ILQELSLPSRPVMP
The normalized value in BLU units (SPOT analysis, Myo5 SH3) [2]: 51.9 BLU

NPQSLARPPPPKRI
The normalized value in BLU units [1]: 247.6 BLU

VLGPKYDPKCPEEH
The normalized value in BLU units (SPOT analysis, Myo5 SH3) [4]: 156.7 BLU

HFPSRSQPSDPKLQ
The normalized value in BLU units (SPOT analysis, Myo5 SH3) [4]: 257.5 BLU

KKIIKDVPGTPSDK
The normalized value in BLU units [3]: 162.7 BLU

DLKKKYAPDPPITH
The normalized value in BLU units [3]: 185.5 BLU

LKKQKAIPSSPCGM
The normalized value in BLU units [3]: 306.9 BLU

PEGVFCIPAPPPNV
The normalized value in BLU units [1]: 82.5 BLU

VRSKRLFPVRPMAT
The normalized value in BLU units [3]: 503.5 BLU

QPAQFMPPQDPAAA
The normalized value in BLU units [1]: 133.5 BLU

TYIWRYLPAPPVCI
The normalized value in BLU units [3]: 444.5 BLU

KQLMKNLPKIPLLN
The normalized value in BLU units [3]: 580.1 BLU

CFKTKFAPEAPDLF
The normalized value in BLU units [3]: 209.0 BLU

SKNWKLPPRLPHRA
The normalized value in BLU units [3]: 5572.0 BLU

SILNRCVPKRPTID
The normalized value in BLU units (SPOT analysis, Myo5 SH3) [4]: 132.7 BLU

GESHYKPPSTPKIN
The normalized value in BLU units (SPOT analysis, Myo5 SH3) [2]: 721.8 BLU

EEMGMEEPQAPEAF
The normalized value in BLU units (SPOT analysis, Myo5 SH3) [2]: 127.9 BLU

PPRFKNFPTLPSKI
The normalized value in BLU units [3]: 634.0 BLU

QFSGLLEPSLPNNM
The normalized value in BLU units [1]: 84.4 BLU

PKSPKAYPKLPDIQ
The normalized value in BLU units (SPOT analysis, Myo5 SH3) [4]: 357.2 BLU

TELLRIIPEMPKDL
The normalized value in BLU units [3]: 228.1 BLU

EEEAKSVPPIPADQ
The normalized value in BLU units (SPOT analysis, Myo5 SH3) [4]: 29.4 BLU

TQSGRMGPSEPKHR
The normalized value in BLU units [1]: 455.6 BLU

MPNLKRLPIPPLQD
The normalized value in BLU units [1]: 306.9 BLU

MLNSKHYPYIPVAN
The normalized value in BLU units [3]: 170.8 BLU

TKFTKPKPKQPVLP
The normalized value in BLU units (SPOT analysis, Myo5 SH3) [4]: 445.1 BLU

LMSLKRFPQLPSNT
The normalized value in BLU units (SPOT analysis, Myo5 SH3) [4]: 347.7 BLU

DLSYYLRPIKPFNT
The normalized value in BLU units (SPOT analysis, Myo5 SH3) [2]: 160.7 BLU

RLVSKYRPNCPIIL
The normalized value in BLU units [3]: 286.2 BLU

PIVKKNVPKPPPLV
The normalized value in BLU units (SPOT analysis, Myo5 SH3) [4]: 153.6 BLU

QSEEKEKPKGPMAV
The normalized value in BLU units [3]: 197.3 BLU

VVPERVKPAPPVSR
The normalized value in BLU units [3]: 149.8 BLU

KVNFRRIPTGPDSP
The normalized value in BLU units [3]: 502.6 BLU

KRRSKSLPTTPGIR
The normalized value in BLU units [3]: 592.0 BLU

IAVTRSIPRGPDKN
The normalized value in BLU units [3]: 157.9 BLU

ELEDFAFPDTPTIV
The normalized value in BLU units [1]: 254.9 BLU

MFTYFQEPPFPDLL
The normalized value in BLU units (SPOT analysis, Myo5 SH3) [2]: 239.3 BLU

PCKKKSKPKVPAKN
The normalized value in BLU units [3]: 579.8 BLU
